Source: ChEMBL document CHEMBL1158716, “Sesquiterpenoids and plasmin-inhibitory flavonoids from Blumea balsamifera” (J Nat Prod, 2005)

Experiments:
Plasminogen = Plasminogen (Homo sapiens, UniProt P00747); test: Inhibition of plasmin
Jurkat = test: Cytotoxicity against human Jurkat cells; assay type: functional, cell-based

Sequence of Plasminogen (P00747 97-580 limits assumed): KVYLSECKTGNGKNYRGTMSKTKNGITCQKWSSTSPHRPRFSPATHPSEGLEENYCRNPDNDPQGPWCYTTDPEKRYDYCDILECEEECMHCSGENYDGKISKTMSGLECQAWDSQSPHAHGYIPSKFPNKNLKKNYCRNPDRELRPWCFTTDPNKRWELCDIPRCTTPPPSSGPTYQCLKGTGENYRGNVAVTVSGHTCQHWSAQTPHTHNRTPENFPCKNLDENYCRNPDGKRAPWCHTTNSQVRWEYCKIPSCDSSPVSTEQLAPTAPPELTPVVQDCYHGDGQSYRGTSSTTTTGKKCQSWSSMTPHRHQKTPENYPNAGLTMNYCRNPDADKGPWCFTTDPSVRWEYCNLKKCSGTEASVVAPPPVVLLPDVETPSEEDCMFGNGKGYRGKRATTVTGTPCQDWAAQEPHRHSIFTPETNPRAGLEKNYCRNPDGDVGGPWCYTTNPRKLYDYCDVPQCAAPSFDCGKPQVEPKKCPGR
Sequence of Plasminogen (P00747 581-810 limits assumed): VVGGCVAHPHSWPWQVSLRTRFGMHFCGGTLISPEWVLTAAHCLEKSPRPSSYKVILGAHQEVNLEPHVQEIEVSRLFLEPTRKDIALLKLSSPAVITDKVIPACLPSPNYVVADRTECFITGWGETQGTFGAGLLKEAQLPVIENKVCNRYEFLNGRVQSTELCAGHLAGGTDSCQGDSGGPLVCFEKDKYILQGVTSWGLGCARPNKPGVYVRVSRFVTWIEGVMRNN

IC50 (Plasminogen) [µM]	Structure (SMILES)	IC50 (Jurkat) [µM]
1.5	COc1cc(O)c2c(=O)c(OC)c(-c3ccc(O)c(O)c3)oc2c1	–
2.3	COc1cc(O)c2c(=O)cc(-c3ccc(O)c(O)c3)oc2c1	–
–	C/C1=C\C(=O)[C@@H](C(C)C)C[C@@H](OC(=O)[C@]2(C)O[C@@H]2C)[C@](C)(O)C(=O)CC1	26.2
–	C=C1CC[C@@]2(O)[C@H]1C(=O)[C@@H](C(C)C)C[C@@H](OC(=O)/C(C)=C\C)[C@]2(C)O	> 70
1.2	CC(=O)N[C@@H](CC(C)C)C(=O)N[C@@H](CC(C)C)C(=O)N[C@H](C=O)CCCNC(=N)N [LEUPEPTIN]	–
